# Patent US6344478B2, “Use of cloprostenol and fluprostenol analogues to treat glaucoma and ocular hypertension” (Alcon Manufacturing, Ltd., priority 1993, dated 2002)
# Tests used:
# pupil diameter of cats = assay: Cat pupil diameter response (pupillary constriction in the cat); format: in vivo; conditions: for ED5 (equivalent response dose, from Area1-5 of pupil diameter versus time curve): area under pupil diameter vs time curve 1-5 hours, estimated from dose response relationship
# Procedure: PGF2α analogues are known to contract the iris sphincter of cats and this assay is a generally accepted reference for activity.
# Compounds of the present invention were therefore screened for pupillary constriction in the cat. The response is quantitated as Area1-5 values (area under the pupil diameter versus time curve from 1-5 hours), and the equivalent response dose (ED5) is estimated from its dose response relationship.
# [1] = system: IOP in cynomolgus monkey eyes; assay: Monkey IOP response in lasered (ocular hypertensive) cynomolgus monkey eyes; format: in vivo; conditions: lasered right eyes of cynomolgus monkeys; five-dose regimen; estimated from dose response relationship
# Procedure: In the study presented below, compound 6 (Table 2, above) was tested for IOP-lowering effect in cynomolgus monkey eyes.
# The right eyes of the cynomolgus monkeys used in this study were previously given laser trabeculoplasty to induce ocular hypertension in the lasered eye. Animals had been trained to sit in restraint chairs and conditioned to accept experimental procedures without chemical restraint. IOP was determined with a pneumatonometer after light corneal anesthesia with dilute proparacaine. The test protocol included a five-dose treatment regimen because of the typical delayed response to prostaglandins. The designated test formulations were administered to the lasered right eyes, and the normal left eyes remained untreated, although IOP measurements were taken. Baseline IOP values were determined prior to treatment with the test formulation, and then IOP was determined from 1 to 7 hours after the first dose, 16 hours after the fourth dose, and 1 to 4 hours after the fifth dose.
# The equivalent response dose (ED20) is estimated from the dose response relationship to be the dose producing a 20% peak reduction in IOP.
# [2] = system: microvascular optic nerve head (ONH) blood flow; assay: Optic nerve head blood flow after one-week topical treatment in the rabbit (Laser Doppler flowmeter); format: in vivo, Dutch-Belted rabbits
# Procedure: (§1) Purpose: A two-way crossover study design was used to compare the effects of Compound 1B (0.004%), topically applied, and dosing vehicle on microvascular optic nerve head blood flow, blood pressure, heart rate, and acid-base balance in fifteen acepromazine-tranquilized Dutch-Belted rabbits. Methods: Baseline measurements were taken before treatment and after drug-free washout periods of 14 days. Microvascular optic nerve head (ONH) blood flow was measured with a fundus camera-based Laser Doppler flowmeter (LDf). Thirty microliters o a 0.004% solution of Compound 1B or vehicle was administered in left eyes only q.d. for 7 days. Experimental measurements were made 2 hours after the topical dose was administered on day 8. A sterile 23 gauge intracatheter was inserted into the central ear artery to monitor blood pressure and to take blood samples for blood pH/gas analysis.
# [3] = Systemic blood pressure, heart rate and blood pH/gas analysis in the rabbit ONH blood flow study; format: in vivo, Dutch-Belted rabbits; conditions: 0.004% topical q.d. 7 days
# Procedure: as §1
smiles,measurement,setting,value
"CC(C)OC(=O)CCC/C=C\C[C@@H]1[C@@H](/C=C/[C@@H](O)COc2cccc(Cl)c2)[C@H](O)C[C@@H]1O [Compound 1A, Cloprostenol, isopropyl ester]","ED5 (equivalent response dose, from Area1-5 of pupil diameter versus time curve)",pupil diameter of cats,0.01 µg
"CCCCC[C@H](O)/C=C/[C@@H]1[C@@H](C/C=C\CCCC(=O)OC(C)C)[C@@H](O)C[C@H]1O [PGF2α Isopropyl Ester, reference compound]","ED5 (equivalent response dose, from Area1-5 of pupil diameter versus time curve)",pupil diameter of cats,0.02 µg
same,ED20 (dose producing a 20% peak reduction in IOP),[1],0.4 µg
"CC(C)OC(=O)CCC/C=C\C[C@H]1C(O)CC(O)[C@@H]1/C=C/C(O)COc1cccc(C(F)(F)F)c1 (stereo partly shown) [Compound 1B, Fluprostenol, isopropyl ester]","ONH blood flow, mean±SEM percent increase from baseline","[2]; 0.004% solution, 30 microliters topical q.d. 7 days, measured 2 hours after dose on day 8, acepromazine-tranquilized rabbits",13.4±3.9%
same,ONH blood flow compared to the vehicle treated group,"[2]; 0.004% topical q.d., p<0.05",significantly increased
same,"changes in systemic blood pressure, heart rate, blood gas tensions and pH compared with the vehicle group",[3],small non-significant changes
same,mean percent decrease in arterial pCO2 tension,[3],2.59±2.5%
same,mean percent decrease in arterial pO2 tension,[3],1.44±2.03%
same,mean percent decrease in systemic arterial pH,[3],0.07±0.09%
"CC(C)(C)C(=O)OCCCC/C=C\C[C@@H]1[C@@H](CC[C@@H](O)COc2cccc(Cl)c2)[C@H](O)C[C@@H]1O [Compound 8, (5Z)-(9S, 11R, 15R)-16-(3-Chlorophenoxy)-17,18,19,20-tetranor-9,11,15-trihydroxy-5-prostenol Pivaloate]","ED5 (equivalent response dose, from Area1-5 of pupil diameter versus time curve)",pupil diameter of cats,0.06 µg
same,potency in cat pupil diameter response compared with the standard compounds,pupil diameter of cats; versus PGF2α isopropyl ester and cloprostenol isopropyl ester,nearly equivalent potency
"CC(C)OC(=O)CCC/C=C\CC1C(CC[C@@H](O)COc2cccc(C(F)(F)F)c2)[C@H](O)C[C@@H]1O (stereo partly drawn) [Compound 6, (5Z)-(9S, 11R, 15R)-17,18,19,20-Tetranor-16-(3-trifluoromethylphenoxy)-9,11,15-trihydroxy-5-prostenoic Acid Isopropyl Ester]","ED5 (equivalent response dose, from Area1-5 of pupil diameter versus time curve)",pupil diameter of cats,0.2 µg
same,ED20 (dose producing a 20% peak reduction in IOP),[1],0.3 µg
